The results in this text go back to the Kinase Knowledgebase extract (Sharma et al. 2016).

MAPK14, sequence (Q16539 whole entry, looked up): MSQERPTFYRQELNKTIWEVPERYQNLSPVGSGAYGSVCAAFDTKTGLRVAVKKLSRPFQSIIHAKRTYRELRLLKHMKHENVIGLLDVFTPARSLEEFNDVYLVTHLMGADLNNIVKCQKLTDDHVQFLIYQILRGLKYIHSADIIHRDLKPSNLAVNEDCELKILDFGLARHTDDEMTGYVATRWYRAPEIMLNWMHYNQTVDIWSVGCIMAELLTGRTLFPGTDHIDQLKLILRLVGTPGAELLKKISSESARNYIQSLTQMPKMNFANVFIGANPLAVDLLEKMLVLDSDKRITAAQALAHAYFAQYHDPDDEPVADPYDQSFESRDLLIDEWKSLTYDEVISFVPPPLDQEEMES

One assay concerns the target MAPK14 (UniProt Q16539). Description: Assessment of MAPK14 Kinase Activity Using Spectrophotometric Assay.
Settings: not given
Compound `O=C(O)CCc1ccc(-n2nc(-c3cccs3)cc2NC(=O)Nc2cccc(Cl)c2Cl)cc1` showed an IC50 of 30 nM. In turn, `CC(C)(C)c1cc(NC(=O)Nc2cccc(Cl)c2Cl)n(-c2ccc(CCC(=O)O)cc2)n1` registered an IC50 of 14 nM. The same measure, in the same setting: the figure for `COc1cccc(-n2nc(C(C)(C)C)cc2NC(=O)Nc2cccc(Br)c2)c1` is 354 nM; for `CN1C(=O)C(c2cccc(NC(=O)Nc3cc(C(C)(C)C)nn3-c3ccc4c(c3)CCN4)c2)C=C2C=NC=NC21` (centres undefined) it is 13 nM. The same measure, in the same setting: the figure for `CC(C)(C)c1cc(NC(=O)Nc2cccc(Cl)c2)n(-c2cccc(CN)c2)n1` is 110 nM. On the same count and under the same terms, the figure for `CC(O)c1cc(-n2nc(C(C)(C)C)cc2NC(=O)Nc2cccc(Cl)c2Cl)cc2ccccc12` (centres undefined) is 150 nM; for `CC(C)(C)c1cc(NC(=O)Nc2cccc(Cl)c2Cl)n(-c2cccc(CC(=O)O)c2)n1` it is 22 nM; for `CC(C)(C)c1cc(NC(=O)Nc2cccc3c2C=NC3=O)n(-c2cccc(CC(N)=O)c2)n1` it is 120 nM. With `CN1C(=O)C(c2cccc(NC(=O)Nc3cc(C(C)(C)C)nn3-c3ccc4c(c3)CCN4S(C)(=O)=O)c2)C=C2C=NC=NC21` (centres undefined), the IC50 worked out at 28 nM. Still for that read-out and setting: for `O=C(Nc1cccc(Cl)c1Cl)Nc1cc(-c2ccccc2F)nn1-c1ccc(CC(=O)N2CC[C@H](CO)C2)cc1` the value was 37 nM.

The assay is the same for the next values; noted with them: concentration not given here.
With `CC(C)(C)c1cc(NC(=O)N2=CC=C3C=CC=CC3=C2)n(n1)c4cccc(CCC(=O)O)c4`, the inhibition was 58%.

Take `Cc1ccc(NC(=O)Nc2cc(C(C)(C)C)nn2-c2cccc(CC(N)=O)c2)cc1Nc1ncccn1`: the inhibition amounted to 90%. On the same count and under the same terms, the figure for `NC(=O)Cc1cccc(-n2nc(C3CCCC3)cc2NC(=O)Nc2ccc(-c3cccc4c3C=NC4=O)cc2)c1` is 82%; for `CC(C)(C)c1cc(NC(=O)Nc2cccc(-c3ncccn3)c2)n(-c2cccc(CC(N)=O)c2)n1` it is 57%.

A word on the IC50: it is the point on the concentration scale where inhibition reaches its midpoint. A higher IC50 goes with weaker potency in that assay. Usually inhibition stands for the drop in the measured response relative to a control, in per cent.
